Assay results as given in patent US20260217708A1, “FUSED BENZAZEPINE DERIVATIVES FOR USE IN THE TREATMENT OF CANCER AND EPILEPSY” (UCB BIOPHARMA SRL, priority 2023, published 2026).
One block for each compound: values may come before it.

How the values were obtained:
system Xc^− [1] = target: T1, system Xc^− (Homo sapiens, UniProt Q9UPY5); test: Cystine-induced glutamate release assay; assay type: cell-based; parameters: endogenous in cells; host or cells: H4 cells; settings: H4 cells, sodium-free HEPES buffer, 50 μM L-Cystine, 2 hours, Amplex Red glutamate readout; read-out: pIC50 Cystine-induced glutamate release assay (converted)
T1 sequence (Q9UPY5 1-501): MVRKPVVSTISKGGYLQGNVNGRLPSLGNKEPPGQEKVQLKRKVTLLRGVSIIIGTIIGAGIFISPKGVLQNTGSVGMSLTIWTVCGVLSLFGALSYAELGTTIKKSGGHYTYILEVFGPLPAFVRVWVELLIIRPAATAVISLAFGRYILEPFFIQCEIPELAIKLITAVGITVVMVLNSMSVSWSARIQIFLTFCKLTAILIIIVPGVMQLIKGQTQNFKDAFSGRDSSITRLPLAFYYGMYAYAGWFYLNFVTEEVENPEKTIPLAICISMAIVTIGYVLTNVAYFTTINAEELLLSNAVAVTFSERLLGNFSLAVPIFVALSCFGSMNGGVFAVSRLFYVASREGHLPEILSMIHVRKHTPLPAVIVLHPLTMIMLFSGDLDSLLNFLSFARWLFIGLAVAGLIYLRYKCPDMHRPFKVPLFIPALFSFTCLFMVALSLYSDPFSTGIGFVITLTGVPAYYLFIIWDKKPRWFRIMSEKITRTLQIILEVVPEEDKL
T1 sequence (P08195 1-529 partner): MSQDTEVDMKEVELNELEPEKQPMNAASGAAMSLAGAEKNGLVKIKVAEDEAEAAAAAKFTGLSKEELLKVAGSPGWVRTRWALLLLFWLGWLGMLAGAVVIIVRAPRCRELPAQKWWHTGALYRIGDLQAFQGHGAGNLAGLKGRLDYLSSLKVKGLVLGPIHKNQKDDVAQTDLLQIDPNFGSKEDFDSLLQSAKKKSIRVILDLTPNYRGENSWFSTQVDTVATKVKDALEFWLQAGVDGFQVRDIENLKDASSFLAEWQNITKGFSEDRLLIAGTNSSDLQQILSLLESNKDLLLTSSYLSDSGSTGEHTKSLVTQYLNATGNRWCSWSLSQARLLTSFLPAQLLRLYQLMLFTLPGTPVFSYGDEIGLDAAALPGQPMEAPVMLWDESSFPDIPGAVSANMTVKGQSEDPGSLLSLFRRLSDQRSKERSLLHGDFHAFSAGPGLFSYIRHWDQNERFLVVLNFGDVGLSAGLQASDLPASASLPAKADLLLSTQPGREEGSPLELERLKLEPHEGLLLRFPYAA
How it was run: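 H4 cells in sodium-free HEPES buffer (pH 7.4), 2 days after plating; glutamate release induced with 50 μM L-cystine plus compound (1% DMSO), 2 h at 37 °C. Supernatant glutamate measured by Amplex Red fluorescence; IC50/pIC50 derived between 1% DMSO and 50 μM erastin controls.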

system Xc^− [2] = target: T1, system Xc^−; test: [^14C]L-Cystine uptake assay; assay type: cell-based; parameters: endogenous in cells; host or cells: H4 cells; settings: H4 cells, sodium-free HEPES buffer, 0.5 μM L-[14C]Cystine and 4.5 μM L-Cystine, 1 hour at 37° C.; read-out: pIC50 [^14C] L-Cystine uptake assay (converted)
How it was run: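 H4 cells at 5×10^4 cells/well in sodium-free HEPES buffer were preincubated 15 min with compounds (1% DMSO). Uptake of 0.5 μM [14C]L-cystine plus 4.5 μM unlabelled L-cystine ran 1 hour at 37° C on scintillating plates. IC50 was set between 1% DMSO and 50 μM Erastin controls and expressed as pIC50.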

IC50 (system Xc^− [1]): 0.0158 to 0.0398 µM
IC50 (system Xc^− [2]): 0.0398 to 0.1 µM
SMILES: Cc1cc2c(c(=O)o1)-c1cccnc1C(C)C(=O)N2CC(=O)Nc1ccc(C(F)F)cc1 (single isomer, unassigned) [#360, N-[4-(difluoromethyl)phenyl]-2-[5,10-dimethyl-3,9-dioxo-4-oxa-8,12-diazatricyclo[9.4.0.0^2,7]pentadeca-1(15),2(7),5,11,13-pentaen-8-yl]acetamide]

IC50 (system Xc^− [1]): 0.0158 to 0.0398 µM
IC50 (system Xc^− [2]): < 0.0158 µM
SMILES: CC1C(=O)N(CC(=O)Nc2ccc(Cl)c(F)c2)c2ccn(C)c(=O)c2-c2ccc(F)cc21 (single isomer, unassigned) [#364, N-(4-chloro-3-fluoro-phenyl)-2-[-9-fluoro-2,7-dimethyl-1,6-dioxo-7H-pyrido[4,3-d][3]benzazepin-5-yl]acetamide]

IC50 (system Xc^− [1]): < 0.0158 µM
IC50 (system Xc^− [2]): 0.0158 to 0.0398 µM
SMILES: CC1C(=O)N(CC(=O)Nc2ccc(C(F)F)cc2)c2cc(C3(F)CC3)oc(=O)c2-c2cccnc21 (single isomer, unassigned) [#365, N-[4-(difluoromethyl)phenyl]-2-[5-(1-fluorocyclopropyl)-10-methyl-3,9-dioxo-4-oxa-8,12-diazatricyclo[9.4.0.0^2,7]pentadeca-1(15),2(7),5,11,13-pentaen-8-yl]acetamide]

IC50 (system Xc^− [1]): 0.0158 to 0.0398 µM
IC50 (system Xc^− [2]): 0.0158 to 0.0398 µM
SMILES: Cc1cc2c(c(=O)n1C)-c1cncnc1C(C)C(=O)N2CC(=O)Nc1ccc(C(F)F)cc1 (single isomer, unassigned) [#367, N-[4-(difluoromethyl)phenyl]-2-[8,13,14-trimethyl-9,15-dioxo-4,6,10,14-tetrazatricyclo[9.4.0.0^2,7]pentadeca-1(11),2(7),3,5,12-pentaen-10-yl]acetamide]

IC50 (system Xc^− [1]): < 0.0158 µM
IC50 (system Xc^− [2]): < 0.0158 µM
SMILES: Cc1c2c(cn(C)c1=O)N(CC(=O)Nc1ccc(C(F)F)cc1)C(=O)C(C)c1ccccc1-2 (single isomer, unassigned) [#368, N-[4-(difluoromethyl)phenyl]-2-[1,3,7-trimethyl-2,6-dioxo-7H-pyrido[4,3-a][3]benzazepin-5-yl]acetamide]

IC50 (system Xc^− [1]): 0.0158 to 0.0398 µM
IC50 (system Xc^− [2]): 0.0158 to 0.0398 µM
SMILES: Cc1cc2c(cn1)-c1cncnc1C(C)C(=O)N2CC(=O)Nc1ccc(Cl)c(F)c1 (single isomer, unassigned) [#369, N-(4-chloro-3-fluoro-phenyl)-2-[8,13-dimethyl-9-oxo-4,6,10,14-tetrazatricyclo[9.4.0.0^2,7]pentadeca-1(15),2,4,6,11,13-hexaen-10-yl]acetamide]

IC50 (system Xc^− [1]): < 0.0158 µM
IC50 (system Xc^− [2]): < 0.0158 µM
SMILES: COc1cc(F)c2c(c1)N(CC(=O)Nc1ccc(Cl)c(F)c1)C(=O)C(C)c1ncncc1-2 (single isomer, unassigned) [#371, N-(4-chloro-3-fluoro-phenyl)-2-[11-fluoro-9-methoxy-5-methyl-6-oxo-5H-pyrimido[4,5-d][1]benzazepin-7-yl]acetamide]

IC50 (system Xc^− [1]): < 0.0158 µM
IC50 (system Xc^− [2]): 0.0158 to 0.0398 µM
SMILES: CC1C(=O)N(CC(=O)Nc2ccc(Cl)c(F)c2)c2cc(F)cc(F)c2-c2cncnc21 (single isomer, unassigned) [#372, N-(4-chloro-3-fluoro-phenyl)-2-[9,11-difluoro-5-methyl-6-oxo-5H-pyrimido[4,5-d][1]benzazepin-7-yl]acetamide]

The remaining lines, values behind:

SMILES: CC1C(=O)N(CC(=O)Nc2ccc(C(F)F)cc2)c2cc(Cl)cc(F)c2-c2cccnc21 (single isomer, unassigned) [#332, 2-[9-chloro-11-fluoro-5-methyl-6-oxo-5H-pyrido[2,3-d][1]benzazepin-7-yl]-N-[4-(difluoromethyl)phenyl]acetamide]
IC50 (system Xc^− [1]): 0.0158 to 0.0398 µM
IC50 (system Xc^− [2]): < 0.0158 µM

SMILES: CC1C(=O)N(CC(=O)Nc2ccc(C(F)(F)F)nc2)c2cc(N3CC(F)(F)C3)ccc2-c2cccnc21 (single isomer, unassigned) [#333, 2-[9-(3,3-difluoroazetidin-1-yl)-5-methyl-6-oxo-5H-pyrido[2,3-d][1]benzazepin-7-yl]-N-[6-(trifluoromethyl)-3-pyridyl]acetamide]
IC50 (system Xc^− [1]): 0.0398 to 0.1 µM
IC50 (system Xc^− [2]): 0.0158 to 0.0398 µM

SMILES: CC1C(=O)N(CC(=O)Nc2ccc(C(F)F)cc2)c2cc(N3CC(F)(F)C3)ccc2-c2cccnc21 (single isomer, unassigned) [#334, 2-[9-(3,3-difluoroazetidin-1-yl)-5-methyl-6-oxo-5H-pyrido[2,3-d][1]benzazepin-7-yl]-N-[4-(difluoromethyl)phenyl]acetamide]
IC50 (system Xc^− [1]): < 0.0158 µM
IC50 (system Xc^− [2]): < 0.0158 µM

SMILES: COc1cc2c(c(OC)n1)-c1cccnc1C(C)C(=O)N2CC(=O)Nc1ccc(C(F)F)cc1 (single isomer, unassigned) [#335, N-[4-(difluoromethyl)phenyl]-2-[3,5-dimethoxy-10-methyl-9-oxo-4,8,12-triazatricyclo[9.4.0.0^2,7]pentadeca-1(15),2(7),3,5,11,13-hexaen-8-yl]acetamide]
IC50 (system Xc^− [1]): < 0.0158 µM
IC50 (system Xc^− [2]): < 0.0158 µM

SMILES: COc1cc2c(c(OC)n1)-c1cccnc1C(C)C(=O)N2CC(=O)Nc1ccc(C(F)(F)F)cn1 (single isomer, unassigned) [#336, 2-[3,5-dimethoxy-10-methyl-9-oxo-4,8,12-triazatricyclo[9.4.0.0^2,7]pentadeca-1(15),2(7),3,5,11,13-hexaen-8-yl]-N-[5-(trifluoromethyl)-2-pyridyl]acetamide]
IC50 (system Xc^− [1]): 0.0158 to 0.0398 µM
IC50 (system Xc^− [2]): 0.0398 to 0.1 µM

SMILES: COc1cc2c(c(OC)n1)-c1cccnc1C(C)C(=O)N2CC(=O)Nc1ccc(C(F)(F)F)nc1 (single isomer, unassigned) [#337, 2-[3,5-dimethoxy-10-methyl-9-oxo-4,8,12-triazatricyclo[9.4.0.0^2,7]pentadeca-1(15),2(7),3,5,11,13-hexaen-8-yl]-N-[6-(trifluoromethyl)-3-pyridyl]acetamide]
IC50 (system Xc^− [1]): 0.0158 to 0.0398 µM
IC50 (system Xc^− [2]): 0.0158 to 0.0398 µM

SMILES: CC1C(=O)N(CC(=O)Nc2ccc(Cl)c(F)c2)c2cc(C(F)F)ncc2-c2cccnc21 (single isomer, unassigned) [#342, N-(4-chloro-3-fluoro-phenyl)-2-[5-(difluoromethyl)-10-methyl-9-oxo-4,8,12-triazatricyclo[9.4.0.0^2,7]pentadeca-1(15),2,4,6,11,13-hexaen-8-yl]acetamide]
IC50 (system Xc^− [1]): < 0.0158 µM
IC50 (system Xc^− [2]): < 0.0158 µM

SMILES: CC1C(=O)N(CC(=O)Nc2ccc(Cl)c(F)c2)c2cc(C(F)F)ncc2-c2cc(F)cnc21 (single isomer, unassigned) [#348, N-(4-chloro-3-fluoro-phenyl)-2-[5-(difluoromethyl)-14-fluoro-10-methyl-9-oxo-4,8,12-triazatricyclo[9.4.0.0^2,7]pentadeca-1(15),2,4,6,11,13-hexaen-8-yl]acetamide]
IC50 (system Xc^− [1]): 0.0158 to 0.0398 µM
IC50 (system Xc^− [2]): < 0.0158 µM

SMILES: CC1C(=O)N(CC(=O)Nc2ccc(C(F)F)cc2)c2cc(C(F)F)c(=O)n(C)c2-c2ccccc21 (single isomer, unassigned) [#357, 2-[3-(difluoromethyl)-1,7-dimethyl-2,6-dioxo-7H-pyrido[3,2-d][3]benzazepin-5-yl]-N-[4-(difluoromethyl)phenyl]acetamide]
IC50 (system Xc^− [1]): 0.0158 to 0.0398 µM
IC50 (system Xc^− [2]): 0.0158 to 0.0398 µM

SMILES: Cc1cc2c(c(=O)n1C)-c1ccnn1C(C)C(=O)N2CC(=O)Nc1ccc(C(F)F)cc1 (single isomer, unassigned) [#358, N-[4-(difluoromethyl)phenyl]-2-[7,12,13-trimethyl-8,14-dioxo-5,6,9,13-tetrazatricyclo[8.4.0.0^2,6]tetradeca-1(10),2,4,11-tetraen-9-yl]acetamide]
IC50 (system Xc^− [1]): 0.0158 to 0.0398 µM
IC50 (system Xc^− [2]): 0.1 to 0.501 µM

SMILES: Cc1cc2c(c(=O)o1)-c1ccccc1C(C)C(=O)N2CC(=O)Nc1ccc(C(F)F)cc1 (single isomer, unassigned) [#359, N-[4-(difluoromethyl)phenyl]-2-[3,7-dimethyl-1,6-dioxo-7H-pyrano[4,3-d][3]benzazepin-5-yl]acetamide]
IC50 (system Xc^− [1]): 0.0158 to 0.0398 µM
IC50 (system Xc^− [2]): 0.0158 to 0.0398 µM
